Patent publication US10781224B2, “Bis(oxymethyl)phosphinic acid and biogenic metal salts thereof as regulators of plant growth and development” (priority 2016, dated 2020)

Test system: winter wheat (Vershin variety)
Experiment: Winter wheat seed treatment with BHMPA salts: germinating power (length and mass of roots and sprouts)
Format: in vivo
Procedure, shortened: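 Seeds (50 per Petri dish on two layers of filter paper) soaked 1 h in BHMPA or its Ca, Mg, Na, Co, Mn, Cu or Zn salts at 1·10^−6-1·10^−12%, with water controls. Germination energy read on day 4, germination on day 8 (wheat) or day 7 (rice, corn), as % means of four replicates. Germinating power taken as root and sprout length plus wet and dry mass per 100 seedlings.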

[1] = comparative study, 1·10^−9% solution

O.O.O=P([O-])(CO)CO.O=P([O-])(CO)CO.[Mn+2] [Mn-salt, Manganese BHMPA Salt]
Length, root (1·10^−6% solution): 2.8 cm
Length, root, + % to control (1·10^−6% solution): −7%
Length, sprout (1·10^−6% solution): 3.4 cm
Length, sprout, + % to control (1·10^−6% solution): −5.5%
Mass, dry, root (1·10^−6% solution): 0.32 g/100 plantlings
Mass, dry, root, + % to control (1·10^−6% solution): −2%
Mass, dry, sprout (1·10^−6% solution): 0.44 g/100 plantlings
Mass, dry, sprout, + % to control (1·10^−6% solution): −10%
Mass, wet, root (1·10^−6% solution): 1.38 g/100 plantlings
Mass, wet, root, + % to control (1·10^−6% solution): −9%
Mass, wet, sprout (1·10^−6% solution): 3.37 g/100 plantlings
Mass, wet, sprout, + % to control (1·10^−6% solution): −6%
germinating power results vs control (1·10^−6% solution): lower than those of the control
Length, root (1·10^−7% solution): 3.8 cm
Length, root, + % to control (1·10^−7% solution): 27%
Length, sprout (1·10^−7% solution): 4.8 cm
Length, sprout, + % to control (1·10^−7% solution): 33%
Mass, dry, root (1·10^−7% solution): 0.50 g/100 plantlings
Mass, dry, root, + % to control (1·10^−7% solution): 35%
Mass, dry, sprout (1·10^−7% solution): 0.58 g/100 plantlings
Mass, dry, sprout, + % to control (1·10^−7% solution): 18%
Mass, wet, root (1·10^−7% solution): 1.74 g/100 plantlings
Mass, wet, root, + % to control (1·10^−7% solution): 14.5%
Mass, wet, sprout (1·10^−7% solution): 3.84 g/100 plantlings
Mass, wet, sprout, + % to control (1·10^−7% solution): 7%
Length, root (1·10^−8% solution): 4.4 cm
Length, root, + % to control (1·10^−8% solution): 47%
Length, sprout (1·10^−8% solution): 6.0 cm
Length, sprout, + % to control (1·10^−8% solution): 67%
Mass, dry, root (1·10^−8% solution): 0.53 g/100 plantlings
Mass, dry, root, + % to control (1·10^−8% solution): 43%
Mass, dry, sprout (1·10^−8% solution): 0.67 g/100 plantlings
Mass, dry, sprout, + % to control (1·10^−8% solution): 37%
Mass, wet, root (1·10^−8% solution): 2.09 g/100 plantlings
Mass, wet, root, + % to control (1·10^−8% solution): 37.5%
Mass, wet, sprout (1·10^−8% solution): 4.52 g/100 plantlings
Mass, wet, sprout, + % to control (1·10^−8% solution): 25.5%
Length, root (1·10^−9% solution): 4.6 cm
Length, root, + % to control (1·10^−9% solution): 53%
Length, sprout (1·10^−9% solution): 7.9 cm
Length, sprout, + % to control (1·10^−9% solution): 119%
Mass, dry, root (1·10^−9% solution): 0.62 g/100 plantlings
Mass, dry, root, + % to control (1·10^−9% solution): 67.5%
Mass, dry, sprout (1·10^−9% solution): 0.84 g/100 plantlings
Mass, dry, sprout, + % to control (1·10^−9% solution): 71%
Mass, wet, root (1·10^−9% solution): 3.00 g/100 plantlings
Mass, wet, root, + % to control (1·10^−9% solution): 97%
Mass, wet, sprout (1·10^−9% solution): 5.09 g/100 plantlings
Mass, wet, sprout, + % to control (1·10^−9% solution): 41%
Length, root (1·10^−10% solution): 4.5 cm
Length, root, + % to control (1·10^−10% solution): 50%
Length, sprout (1·10^−10% solution): 7.1 cm
Length, sprout, + % to control (1·10^−10% solution): 97%
Mass, dry, root (1·10^−10% solution): 0.57 g/100 plantlings
Mass, dry, root, + % to control (1·10^−10% solution): 54%
Mass, dry, sprout (1·10^−10% solution): 0.80 g/100 plantlings
Mass, dry, sprout, + % to control (1·10^−10% solution): 63%
Mass, wet, root (1·10^−10% solution): 2.16 g/100 plantlings
Mass, wet, root, + % to control (1·10^−10% solution): 142%
Mass, wet, sprout (1·10^−10% solution): 4.60 g/100 plantlings
Mass, wet, sprout, + % to control (1·10^−10% solution): 28%
Length, root (1·10^−11% solution): 4.4 cm
Length, root, + % to control (1·10^−11% solution): 47%
Length, sprout (1·10^−11% solution): 6.1 cm
Length, sprout, + % to control (1·10^−11% solution): 69%
Mass, dry, root (1·10^−11% solution): 0.52 g/100 plantlings
Mass, dry, root, + % to control (1·10^−11% solution): 40.5%
Mass, dry, sprout (1·10^−11% solution): 0.75 g/100 plantlings
Mass, dry, sprout, + % to control (1·10^−11% solution): 53%
Mass, wet, root (1·10^−11% solution): 1.90 g/100 plantlings
Mass, wet, root, + % to control (1·10^−11% solution): 34%
Mass, wet, sprout (1·10^−11% solution): 4.00 g/100 plantlings
Mass, wet, sprout, + % to control (1·10^−11% solution): 11%
Length, root (1·10^−12% solution): 3.6 cm
Length, root, + % to control (1·10^−12% solution): 20%
Length, sprout (1·10^−12% solution): 5.2 cm
Length, sprout, + % to control (1·10^−12% solution): 44%
Mass, dry, root (1·10^−12% solution): 0.40 g/100 plantlings
Mass, dry, root, + % to control (1·10^−12% solution): 8%
Mass, dry, sprout (1·10^−12% solution): 0.69 g/100 plantlings
Mass, dry, sprout, + % to control (1·10^−12% solution): 31%
Mass, wet, root (1·10^−12% solution): 1.52 g/100 plantlings
Mass, wet, root, + % to control (1·10^−12% solution): 0%
Mass, wet, sprout (1·10^−12% solution): 3.48 g/100 plantlings
Mass, wet, sprout, + % to control (1·10^−12% solution): −3%
Length, root [1]: 9.8 cm
Length, root, + % to control [1]: 13%
Length, sprout [1]: 6.7 cm
Length, sprout, + % to control [1]: 8%
Mass, dry, root [1]: 0.66 g/100 plantlings
Mass, dry, root, + % to control [1]: 6%
Mass, dry, sprout [1]: 0.55 g/100 plantlings
Mass, dry, sprout, + % to control [1]: 8%
Mass, wet, root [1]: 5.69 g/100 plantlings
Mass, wet, root, + % to control [1]: 57%
Mass, wet, sprout [1]: 4.97 g/100 plantlings
Mass, wet, sprout, + % to control [1]: 25%
